According to PMC12250893, “Systematic Characterization of In Vitro and In Vivo Metabolic Pathways and Identification of Novel Biomarkers of 26 Synthetic Cannabinoids” (Molecules, 2025):
“Also recorded” adds a separate entry of the source. Read-outs that look alike come from different tables or passages of the source.

Key:
[1] = Human liver microsomal incubation (in vitro metabolic model); details: for Conversion Rate: HLM, 37 °C 1 h, then UDPGA 30 min, peak area of parent in experimental group vs degradation control group; for most prevalent Phase II metabolic reaction / predominant Phase I metabolic reactions: human liver microsomal incubations
Protocol: Each of the 26 SCs was configured to 1 mg/mL with acetonitrile. The HLMs, NADPH regeneration solution A, regeneration solution B, and UDPGA solution were thawed at 4 °C. An icebox was prepared, and all additional steps were performed on ice. For this, 10 µL of NADPH regeneration solution A, 2 µL of regeneration solution B, 2 µL of SCs standard, and 10 µL of mixed human liver microsomes were added to 176 µL of 0.1 mol/L phosphate buffer. The mixture was mixed thoroughly and incubated at 37 °C for 1 h. Subsequently, 20 µL of UDPGA solution was added and mixed well, followed by an additional incubation for 30 min. The reaction was stopped by adding 200 µL of ice-cold acetonitrile. Additionally, the negative control group and the degradation control group were set up following the same procedure. […] The unadded components were supplemented with an equal amount of phosphate buffer. All samples were centrifuged at a high speed of 13,500 r for 10 min after reaction termination. The supernatant was collected and subsequently passed through a membrane filter (0.45 μm) prior to sampling.
The samples were separated and analyzed using a UHPLC-Q-Exactive Orbitrap MS system (Thermo Fisher Scientific, Waltham, MA, USA), which comprised a Thermo-Scientific™ Q-Exactive™(Thermo Fisher Scientific, Waltham, MA, USA) quadrupole electrostatic field orbitrap mass spectrometer coupled to a Vanquish ultrahigh-performance liquid chromatography (UHPLC) system (Thermo Fisher Scientific, Waltham, MA, USA) with a heated electrospray ionization HESI source in the positive ionization mode. The samples were separated on an ACQUITY UPLC BEH C18 Column (100 × 2.1 mm, 1.7 μm) with the column temperature maintained at 30 °C. The chromatographic separation was achieved using a gradient elution program with mobile phase A consisting of 0.1% formic acid in water and mobile phase B containing 0.1% formic acid in acetonitrile. The gradient profile was programmed as follows: Initial conditions were maintained at 5% B from 0 to 1 min, followed by a linear increase to 95% B from 1 to 11 min; the 95% B composition was held from 11 to 15.5 min, then decreased back to 5% B from 15.5 to 16 min, and finally maintained at 5% B from 16 to 18 min. The flow rate was set at 0.3 mL/min, and the injection volume was 10 μL for all analyses.
The following HESI source conditions were adopted: Acquisition mode was set to positive ion mode; the capillary temperature was maintained at 325 °C, the auxiliary gas heater temperature was set to 350 °C, and the spray voltage was applied at 3.7 kV. The mass spectrometry analysis was carried out in full-scan (FS) mode to trigger data-dependent acquisition in tandem mass spectrometry (FS-ddMS^2) mode. The FS data acquisition was performed using the following parameters: a resolution of 60,000, an automatic gain control (AGC) target of 1 × 10^6, a scan range of m/z 66.7–1000, and a maximum injection time (IT) of 250 ms. The ddMS^2 data acquisition was performed using the following parameters: a resolution of 30,000; an automatic gain control (AGC) target of 1 × 10^5; normalized collision energies (NCEs) of 20, 40, and 70 eV; and a maximum injection time (IT) of 50 ms.
Data acquisition was executed utilizing Xcalibur 4.3 software (Thermo Fisher Scientific, Waltham, MA, USA). The subsequent analysis of the acquired data was conducted using Thermo Fisher Scientific […] 3.2 software (Thermo Fisher Scientific, Waltham, MA, USA). The workflow’s nodes employed specific parameters: a mass tolerance of 5 ppm, a signal-to-noise threshold of 3, a minimum peak intensity of 1 × 10^5, a maximum peak width of 0.8 min, and a minimum of 3 scans per peak.

[2] = Rat metabolic model, metabolite identification; format: in vivo
Protocol: (§1) Sprague-Dawley male rats (200 ± 20 g) were obtained from SPF (Beijing) Biotechnology Co., Ltd. (Beijing, China). The animals were housed under controlled environmental conditions: Temperature was maintained at 20–25 °C, humidity at 50 ± 10%, and a 12/12 h light/dark cycle was applied. They had ad libitum access to standard laboratory chow and filtered water. A two-week acclimatization period was provided before the experiments began. The 26 SC standards were prepared in normal saline at concentrations of 0.5 mg/mL, 0.1 mg/mL, and 0.05 mg/mL. Each rat was weighed before administration, and the injection dose was adjusted based on body weight. The dosing volume for each rat was maintained at approximately 200 µL.
(§2) 162 Sprague-Dawley (SD) rats were randomly divided into 27 groups, with six rats in each group. The control group received an injection of normal saline, while the remaining groups were injected with 26 different types of SCs. The dosage administered was determined based on pre-experimental results, specifically selecting the dose that produced the highest level of metabolites in the blood samples collected 1 h after tail vein injection at concentrations of 0.5 mg/kg, 0.1 mg/kg, and 0.05 mg/kg, as shown in Table 6. Subsequently, tail vein administration was conducted at the specified dosage. The orbital venous blood was taken from the outer canthus of the rat with capillaries at 15 min and 1 h. Feces were collected after the blood. The rats were then sacrificed, and their brains and livers were dissected. Samples were immediately frozen in liquid nitrogen and stored at −80 °C until analysis.
(§3) For blood samples, 0.5 mL of each sample was mixed with 1.0 mL of acetonitrile. For brain samples, 0.2 g of tissue was combined with 0.5 mL of acetonitrile. For liver samples, 0.5 g of tissue was mixed with 0.5 mL of acetonitrile. For feces samples, 0.2 g of sample was combined with 1 mL of acetonitrile-water (3:1) for grinding and homogenization. Each mixture was sonicated for 40 min, allowed to precipitate at 4 °C for 30 min, and then centrifuged at 13,500 rpm for 10 min. The supernatant was filtered using a syringe filter (0.45 μm) for further testing.

[3] = Clinical symptoms of rats in metabolic model; format: in vivo, rat; details: SD rats, dose 0.05-0.5 mg/kg per Table 6
Protocol: as §1, §2

[4] = Metabolite identification, HLM incubation and rat model combined (UHPLC-Q-Exactive Orbitrap MS); design: species or system human; rat; details: for metabolite that was a common outcome in both models: HLM incubation and rat model; for Characteristic Metabolite: characteristic / defining metabolites by the screening criteria; for Number of Metabolites / Number of Phase I Metabolites / Number of Phase II Metabolites: in vitro (HLM) and in vivo (rat) models together
Protocol: as §1, §2, §3

[5] = pooled HLM and real urine samples; cited from earlier work
[6] = design: method as in PMID 32678962; details: in vitro and in vivo systems; cited from earlier work
[7] = following human liver microsomal incubation

Row | Structure (SMILES) | Conversion Rate [1] [%] | Phase II metabolites detected [1, 7] | metabolites detected [1, 7] | most prevalent Phase II metabolic reaction [1] | predominant Phase I metabolic reactions [1] | key Phase I metabolic reactions [2] | most significant Phase II metabolic processes [2] | Phase II metabolites identified ([2]; tail vein injection) | metabolic pathways associated ([2]; tail vein injection) | metabolites identified ([2]; tail vein injection) | metabolite that was a common outcome in both models [4] | Characteristic Metabolite [4] | Number of Metabolites [4] | Number of Phase I Metabolites [4] | Number of Phase II Metabolites [4] | other results
1 | CCOC(=O)C(NC(=O)c1nn(CCCCCF)c2ccccc12)C(C)C (stereo not shown) [5F-EMB-PINACA] | 100.0 | one | eleven | glucuronidation | ester hydrolysis and hydroxylation | oxidative defluorination and hydroxylation | sulfation and arginine binding reactions | 3 | eight | 13 | ester hydrolysis metabolite | ester hydrolysis, ester hydrolysis, hydroxylated, and oxidative defluorination metabolites; also recorded: Ester hydrolysis, oxidative defluorination, ester hydrolysis, and hydroxylated metabolites | 23 | 19 | 4 | Animal manifestations after tail vein drug injection [3]: irritable, with unstable gait and tachypnea; also recorded: hematuria
2 | COC(=O)C(NC(=O)c1cn(CCCCCF)c2ccccc12)C(C)(C)C (stereo not shown) [5F-MDMB-PICA] | 95.9 | two | fourteen | glucuronidation | ester hydrolysis and hydroxylation | oxidative defluorination and hydroxylation | sulfation and glycoside binding reactions | five | seven | twelve | oxidative defluorination metabolite | ester hydrolysis, de-N-alkylation, and oxidative defluorination metabolites; also recorded: Ester hydrolysis, de-N-alkyl side chain, and oxidative defluorination metabolite | 25 | 18 | 7 | Phase I metabolites detected [1, 7]: twelve; metabolic pathways involved [1, 7]: eight; Phase I metabolites identified ([2]; tail vein injection): seven; most abundant stage I metabolites [5]: ester hydrolysis metabolites
3 | CC(C)(NC(=O)c1cn(CCCCCF)c2ncccc12)c1ccccc1 [CUMYL-5F-P7ICA] | – | – | – | – | – | – | – | – | – | – | – | – | – | – | – | Phase II metabolites detected [6]: sulfated and glucuronidated; most common Phase I reactions [6]: oxidative defluorination, monohydroxylation, ketone formation, and carboxylation
